Assays:
Experiment in all cases: NCI 60 cell line screen
[1] = system: HCT-116; type: cell-based, human; details: HCT-116, Colon Cancer; single concentration 10^−5 M
Procedure: (§1) The cytotoxic activity of nortopsintin analogs (4a-4j) was determined by the national cancer institute (NCI, Bethesda, Maryland, USA) against 60 different cancer cell lines at a single concentration of (10^-5 M). For the determination of IC50 value, we used MTT assay kit (Sigma) according to the manufacturer's protocol. HCT-116 cells were seeded into a 96-well plate at a concentration of 20,000 cells/well. After 24 h, the media was aspirated and replaced with serum-free media containing serial dilutions of the 4i compound. […] The percentage of cytotoxicity was calculated using the following equation: % Cytotoxicity = [1 - ([…])] × 100.

[2] = system: HOP-92; type: cell-based; details: HOP-92, Non-Small Cell Lung Cancer; single concentration 10^−5 M
Procedure: as §1

[3] = system: UACC-257; type: cell-based; details: UACC-257, Melanoma; single concentration 10^−5 M
Procedure: as §1

[4] = system: SNB-19; type: cell-based; details: SNB-19, CNS Cancer; single concentration 10^−5 M
Procedure: as §1

[5] = system: PC-3; type: cell-based; details: PC-3, Prostate Cancer; single concentration 10^−5 M
Procedure: as §1

[6] = system: OVCAR-4; type: cell-based; details: OVCAR-4, Ovarian Cancer; single concentration 10^−5 M
Procedure: as §1

[7] = system: BT-549; type: cell-based; details: BT-549, Breast Cancer; single concentration 10^−5 M
Procedure: as §1

[8] = system: OVCAR-8; type: cell-based; details: OVCAR-8, Ovarian Cancer; single concentration 10^−5 M
Procedure: as §1

[9] = system: OVCAR-3; type: cell-based; details: OVCAR-3, Ovarian Cancer; single concentration 10^−5 M
Procedure: as §1

[10] = system: CCRF-CEM; type: cell-based; details: Leukemia, single concentration 10^−5 M
Procedure: as §1

[11] = system: 786-0; type: cell-based; details: 786-0, Renal Cancer; single concentration 10^−5 M
Procedure: as §1

[12] = system: TK-10; type: cell-based; details: TK-10, Renal Cancer; single concentration 10^−5 M
Procedure: as §1

[13] = system: NCI-H460; type: cell-based; details: NCI-H460, Non-Small Cell Lung Cancer; single concentration 10^−5 M
Procedure: as §1

[14] = system: HCT-15; type: cell-based; details: HCT-15, Colon Cancer; single concentration 10^−5 M
Procedure: as §1

[15] = system: CAKI-1; type: cell-based; details: CAKI-1, Renal Cancer; single concentration 10^−5 M
Procedure: as §1

[16] = system: HS 578T; type: cell-based; details: Breast Cancer, single concentration 10^−5 M
Procedure: as §1

[17] = system: T-47D; type: cell-based; details: Breast Cancer, single concentration 10^−5 M
Procedure: as §1

[18] = system: NCI-H226; type: cell-based; details: NCI-H226, Non-Small Cell Lung Cancer; single concentration 10^−5 M
Procedure: as §1

[19] = system: NCI-H322M; type: cell-based; details: Non-Small Cell Lung Cancer, single concentration 10^−5 M
Procedure: as §1

[20] = system: K-562; type: cell-based; details: K-562, Leukemia; single concentration 10^−5 M
Procedure: as §1

[21] = system: SK-MEL-2; type: cell-based; details: SK-MEL-2, Melanoma; single concentration 10^−5 M
Procedure: as §1

[22] = system: DU-145; type: cell-based; details: DU-145, Prostate Cancer; single concentration 10^−5 M
Procedure: as §1

[23] = system: MDA-MB-231/ATCC; type: cell-based; details: Breast Cancer, single concentration 10^−5 M
Procedure: as §1

[24] = system: RPMI-8226; type: cell-based; details: RPMI-8226, Leukemia; single concentration 10^−5 M
Procedure: as §1

[25] = system: SR; type: cell-based; details: Leukemia, single concentration 10^−5 M
Procedure: as §1

[26] = system: A498; type: cell-based; details: A498, Renal Cancer; single concentration 10^−5 M
Procedure: as §1

[27] = system: SF-539; type: cell-based; details: SF-539, CNS Cancer; single concentration 10^−5 M
Procedure: as §1

[28] = system: ACHN; type: cell-based; details: Renal Cancer, single concentration 10^−5 M
Procedure: as §1

[29] = system: HT29; type: cell-based; details: HT29, Colon Cancer; single concentration 10^−5 M
Procedure: as §1

[30] = system: UACC-62; type: cell-based; details: UACC-62, Melanoma; single concentration 10^−5 M
Procedure: as §1

[31] = system: NCI/ADR-RES; type: cell-based; details: Ovarian Cancer, single concentration 10^−5 M
Procedure: as §1

[32] = system: SW-620; type: cell-based; details: SW-620, Colon Cancer; single concentration 10^−5 M
Procedure: as §1

[33] = system: KM12; type: cell-based; details: KM12, Colon Cancer; single concentration 10^−5 M
Procedure: as §1

[34] = system: U251; type: cell-based; details: U251, CNS Cancer; single concentration 10^−5 M
Procedure: as §1

[35] = system: SK-MEL-5; type: cell-based; details: SK-MEL-5, Melanoma; single concentration 10^−5 M
Procedure: as §1

[36] = system: RXF 393; type: cell-based; details: RXF 393, Renal Cancer; single concentration 10^−5 M
Procedure: as §1

[37] = system: NCI-H23; type: cell-based; details: NCI-H23, Non-Small Cell Lung Cancer; single concentration 10^−5 M
Procedure: as §1

[38] = system: A549/ATCC; type: cell-based; details: Non-Small Cell Lung Cancer, single concentration 10^−5 M
Procedure: as §1

For `N#Cc1c(-c2ccccc2)cc(-c2c[nH]c3ccccc23)nc1-c1c[nH]c2ccccc12` [4a], the Growth % [1] was 103.11%, the Growth % [2] was 92.10% and the Growth % [3] was 106.98%. The Growth % [4] was 97.62%, the Growth % [5] was 92.44% and the Growth % [6] was 103.65%. It also gave a Growth % [7] of 94.69%, a Growth % [8] of 98.73% and a Growth % [9] of 109.77%. For the same molecule, the Growth % [10] was 102.65%, the Growth % [11] was 102.19% and the Growth % [12] was 123.79%. It also gave a Growth % [13] of 106.27%, a Growth % [14] of 99.26% and a Growth % [15] of 87.26%. It also gave a Growth % [16] of 93.45%, a Growth % [17] of 86.69% and a Growth % [18] of 89.89%. For the same molecule, the Growth % [19] was 105.41%, the Growth % [20] was 100.60% and the Growth % [21] was 97.65%. For the same molecule, the Growth % [22] was 108.34%, the Growth % [23] was 92.64% and the Growth % [24] was 100.70%. It also gave a Growth % [25] of 96.68%, a Growth % [26] of 98.67% and a Growth % [27] of 98.60%. The Growth % [28] was 96.37%, the Growth % [29] was 102.69% and the Growth % [30] was 94.92%. It also gave a Growth % [31] of 98.30%, a Growth % [32] of 101.78% and a Growth % [33] of 102.51%. The Growth % [34] was 94.26%, the Growth % [35] was 99.18% and the Growth % [36] was 94.99%. For the same molecule, the Growth % [37] was 95.64% and the Growth % [38] was 98.73%.

`N#Cc1c(-c2ccc(Br)cc2)cc(-c2c[nH]c3ccccc23)nc1-c1c[nH]c2ccccc12` [4b] was tested, and the Growth % [1] was 104.37%, the Growth % [2] was 92.57% and the Growth % [3] was 107.82%. The Growth % [4] was 98.35%, the Growth % [5] was 93.93% and the Growth % [6] was 102.16%. It also gave a Growth % [7] of 103.55%, a Growth % [8] of 96.50% and a Growth % [9] of 102.43%. It also gave a Growth % [10] of 102.80%, a Growth % [11] of 101.55% and a Growth % [12] of 146.78%. It also gave a Growth % [13] of 106.47%, a Growth % [14] of 97.86% and a Growth % [15] of 81.43%. For the same molecule, the Growth % [16] was 97.14%, the Growth % [17] was 85.37% and the Growth % [18] was 87.72%. The Growth % [19] was 104.62%, the Growth % [20] was 96.82% and the Growth % [21] was 95.21%. It also gave a Growth % [22] of 107.37%, a Growth % [23] of 101.07% and a Growth % [24] of 102.03%. It also gave a Growth % [25] of 94.65%, a Growth % [26] of 95.35% and a Growth % [27] of 97.32%. The Growth % [28] was 99.45%, the Growth % [29] was 107.82% and the Growth % [30] was 94.51%. It also gave a Growth % [31] of 99.61%, a Growth % [32] of 105.18% and a Growth % [33] of 99.86%. The Growth % [34] was 94.64%, the Growth % [35] was 97.46% and the Growth % [36] was 109.74%. The Growth % [37] was 93.93% and the Growth % [38] was 98.58%.

`COc1cc(OC)cc(-c2cc(-c3c[nH]c4ccccc34)nc(-c3c[nH]c4ccccc34)c2C#N)c1` [4f] showed a Growth % [1] of 100.81%, a Growth % [2] of 95.02% and a Growth % [3] of 112.07%. The Growth % [4] was 96.57%, the Growth % [5] was 93.60% and the Growth % [6] was 101.53%. For the same molecule, the Growth % [7] was 103.60%, the Growth % [8] was 102.00% and the Growth % [9] was 99.19%. The Growth % [11] was 104.74%, the Growth % [12] was 124.45% and the Growth % [13] was 103.37%. For the same molecule, the Growth % [14] was 101.68%, the Growth % [15] was 91.03% and the Growth % [16] was 102.35%. For the same molecule, the Growth % [17] was 98.31%, the Growth % [18] was 87.28% and the Growth % [19] was 104.89%. For the same molecule, the Growth % [20] was 93.22%, the Growth % [21] was 88.37% and the Growth % [22] was 101.42%. For the same molecule, the Growth % [23] was 100.79%, the Growth % [24] was 98.96% and the Growth % [25] was 81.27%. The Growth % [26] was 96.67%, the Growth % [27] was 94.25% and the Growth % [28] was 97.24%. The Growth % [29] was 108.12%, the Growth % [30] was 93.55% and the Growth % [31] was 97.14%. It also gave a Growth % [32] of 102.51%, a Growth % [33] of 98.72% and a Growth % [34] of 99.96%. For the same molecule, the Growth % [35] was 98.48%, the Growth % [36] was 107.63% and the Growth % [37] was 103.68%. It also gave a Growth % [38] of 98.51%.
